According to ChEMBL document CHEMBL3352148, “Docking based virtual screening and molecular dynamics study to identify potential monoacylglycerol lipase inhibitors” (Bioorg Med Chem Lett, 2014):

Key:
[1] = Predicted human oral absorption (QikProp); conditions: in silico
[2] = Retention time of the compound by UPLC-MS/MS method; assay type: physicochemical
Monoglyceride lipase = target: T1, Monoglyceride lipase (Homo sapiens, UniProt Q99685); assay: Inhibition of human MAGL using 4-Nitrophenylacetate substrate incubated for 15 mins
T1 sequence (Q99685 whole entry): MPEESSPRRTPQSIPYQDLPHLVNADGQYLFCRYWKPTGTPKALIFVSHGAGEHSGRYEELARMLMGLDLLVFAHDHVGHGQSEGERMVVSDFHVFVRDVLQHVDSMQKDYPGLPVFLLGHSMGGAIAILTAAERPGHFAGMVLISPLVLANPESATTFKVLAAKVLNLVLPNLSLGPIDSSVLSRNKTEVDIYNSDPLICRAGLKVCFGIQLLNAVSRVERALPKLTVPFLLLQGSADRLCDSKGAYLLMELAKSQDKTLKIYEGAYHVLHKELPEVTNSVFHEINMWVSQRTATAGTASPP

SMILES	Fa [1] [%]	Retention_time [2] [min]	IC50 (Monoglyceride lipase) [µM]
O=C(NCc1ccc2c(c1)OCO2)[C@H]1CC(=O)N(c2ccc(OCc3ccccc3Cl)cc2)C1	100		
Cc1ccc(N2C[C@H](C(=O)NCc3n[nH]c(=O)c4ccccc34)CC2=O)cc1C	77.9	1.68	
C[C@H]1CCCC[C@@H]1NC(=O)CC[C@@H]1NC(=O)N(CCc2c[nH]c3ccc(F)cc23)C1=O	90.7	2.26	> 100
Cc1cc(C)cc(NC(=O)[C@@H]2CC(=O)N(CCc3c[nH]c4ccc(F)cc34)C2)c1	100	1.55	
O=C(Cn1nnc2ccccc21)Nc1ccc(-c2nc3ccccc3s2)cc1	100	1.72	
O=C(COc1ccc2ccccc2c1)Nn1ccc2c(nnc3c(-c4ccc(F)cc4)cnn32)c1=O	100	1.29	> 100
O=C(NCc1ccc2c(c1)OCO2)[C@@H]1CC(=O)N(c2ccc(OCc3ccccc3Cl)cc2)C1		2.01	
COc1ccc2cc(-c3nc4sc(C(=O)Nc5ccccc5OC)cc4c(=O)[nH]3)c(=O)oc2c1	80.4		
COc1nn(-c2ccc(NC(=O)OCc3ccccc3)c(C)c2)c(=O)o1			0.02
